# Source: article PMC6886403, “Structure-Based and Molecular Modeling Studies for the Discovery of Cyclic Imides as Reversible Cruzain Inhibitors With Potent Anti-Trypanosoma cruzi Activity” (Frontiers in Chemistry, 2019)
# Read-outs that look alike come from different tables or passages of the source.
# Legend:
# [1] = biological target: T1, cruzain (Trypanosoma cruzi, UniProt P25779); test: Cruzain inhibition assay (cleavage of fluorogenic substrate Z-Phe-Arg-AMC); type: biochemical; details: for inhibition at 100 µM: at 100 μM inhibitor, mean of three measurements, read-out: Percent inhibition against cruzain; for IC50: mean ± SD of three individual experiments, at least six inhibitor concentrations in triplicate, 1.5 nM cruzain, 5.0 μM Z-Phe-Arg-AMC, pH 5.5
# T1 construct: inferred from Ni-NTA purification of the pro-enzyme; made in house; host or cells: Escherichia coli (M15)
# T1 sequence (P25779 123-337 limits assumed): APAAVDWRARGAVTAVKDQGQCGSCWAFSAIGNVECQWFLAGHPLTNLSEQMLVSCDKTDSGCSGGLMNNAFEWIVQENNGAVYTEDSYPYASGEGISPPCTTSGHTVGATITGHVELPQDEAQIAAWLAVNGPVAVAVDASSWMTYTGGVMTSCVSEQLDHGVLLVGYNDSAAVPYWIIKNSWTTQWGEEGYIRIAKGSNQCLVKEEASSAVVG
# Protocol: The catalytic activity of cruzain was monitored by cleavage of the fluorogenic substrate Z-Phe-Arg-aminomethyl coumarin (Z-Phe-Arg-AMC) as previously described (Ferreira et al., [2014]). The enzyme kinetics assays were performed in 0.1 M sodium acetate buffer (pH 5.5) with 5 mM dithiothreitol (DTT) and 0.01% Triton X-100. […] The enzyme reaction was monitored for 5 min at 30°C in 96-well black flat bottom plates, and the activity was calculated based on the initial rates compared with a control (DMSO). Wavelengths of 355 nm for excitation and 460 nm for emission were used. IC50 values were independently determined by determining rate measurements for at least six inhibitor concentrations, each evaluated in triplicate. To determine the mechanism of inhibition, eight substrate concentrations and four inhibitor concentrations were used, each in triplicate. The mechanism of inhibition was determined by Lineweaver-Burk plots. SigmaPlot 10.0 (Systat Software Inc., Erkrath, Germany) was used to determine the IC50 values.
# [2] = system: T. cruzi intracellular amastigotes; test: T. cruzi intracellular amastigote assay (Tulahuen lacZ strain, CPRG readout); type: cell-based, Trypanosoma cruzi; details: for IC50: Trypanosoma cruzi, read-out: IC50 T. cruzi
# Protocol: In vitro assays against T. cruzi were performed as described previously (Ferreira et al., [2014]). The T. cruzi Tulahuen strain, which expresses the E. coli β-galactosidase gene lacZ (Buckner et al., [1996]), was provided by Frederick S. Buckner (University of Washington, Seattle, WA). Stock solutions of the synthesized compounds were prepared in 100% DMSO. Epimastigotes were grown in liver infusion tryptone (LIT) supplemented with 10% fetal calf serum (FCS), penicillin and streptomycin (28°C). Metacyclogenesis from epimastigotes to trypomastigotes was induced by incubation of the epimastigotes in Grace's insect medium (Sigma-Aldrich, St. Louis, MO) supplemented with 10% FCS (28°C). HFF-1 human fibroblasts were seeded at 2 × 10^3/well (80 μL) in 96-well tissue culture plates in RPMI 1640 without phenol red supplemented with 10% FCS and incubated overnight (37°C, 5% CO2). Next, trypomastigotes were added at 1.0 × 10^4/well (20 μL), and the plates were incubated (37°C, 5% CO2). After 24 h, 3-fold serial dilutions (50 μL) of the synthesized compounds were added at concentrations ranging from 0.1 to 100 μM, and the plates were incubated (37°C, 5% CO2). Each compound concentration was evaluated in triplicate. All plates included BZ (Sigma-Aldrich) as a positive control and untreated wells (100% growth) as a negative control. After 120 h, 50 μL of chlorophenol red β-D-galactopyranoside (CPRG, Sigma-Aldrich) and IGEPAL CA-630 (Sigma-Aldrich) (0.1%) was added to each well. The absorbance was measured at 570 nm in an automated microplate reader, and the data were transferred to SigmaPlot 10.0 (Systat Software Inc.) for IC50 value calculation.
# [3] = Cytotoxicity in HFF-1 cells (MTS tetrazolium assay); type: cell-based; details: human, HFF-1 fibroblasts, mean ± SD of two independent assays
# Protocol: (§1) The cytotoxicities of the compounds against HFF-1 fibroblasts and HepG2 hepatocytes were evaluated using the MTS tetrazolium assay (Promega, Madison, WI) (Barltrop et al., [1991]). HFF-1 fibroblasts were seeded at 2 × 10^3/well in 96-well culture plates in RPMI 1640 without phenol red supplemented with 10% FCS and incubated overnight (37°C, 5% CO2). HepG2 hepatocytes were seeded at 6 × 10^3/well in 96-well culture plates in DMEM (Cultilab, Campinas SP) supplemented with 10% FCS and incubated overnight (37°C, 5% CO2). The compounds were added in 3-fold serial dilutions, and the plates were incubated at 37°C with 5% CO2. Each compound concentration was evaluated in triplicate. All plates included doxorubicin (Sigma-Aldrich, St. Louis, MO) as a positive control and untreated wells (100% growth) as a negative control. After 72 h, 20 μL of MTS was added, and the plates were incubated for 4 h. The absorbance was measured at 490 nm in an automated microplate reader, and the data were transferred to SigmaPlot 10.0 (Systat Software Inc., Erkrath, Germany) for IC50 value calculation. The percent of nonviable cells was determined and compared to the negative control wells (100% growth).
# [4] = Cytotoxicity in HepG2 cells (MTS tetrazolium assay); type: cell-based; details: human, HepG2 hepatocytes, mean ± SD of two independent assays
# Protocol: as §1
# [5] = design: method as in Pérez-Molina and Molina, 2018; details: patients under treatment; ref Pérez-Molina and Molina, 2018; cited from earlier work
# [6] = intracellular amastigotes, Tulahuen strain in HFF-1 fibroblasts, 120 h, mean ± SD of two experiments
Structure (SMILES),inhibition at 100 µM [1] [%],"IC50 [2, 6] [nM]",CC50 at 72 h [3] [µM],CC50 at 72 h [4] [µM],"IC50 ([2]; TULAHUEN, HFF-1, 120 h) [nM]",patients with severe adverse effects [5],activity against T. cruzi (in words) ([2]; intracellular amastigotes),"mechanism of inhibition ([1]; Lineweaver-Burk plots, eight substrate and four inhibitor concentrations)",IC50 [1] [nM],increase in potency against cruzain relative to 3a ([1]; more active than 3a) [fold],trypanocidal activity relative to BZ ([2]; higher than that of BZ) [fold],decrease in potency against cruzain relative to 3a ([1]; less active than 3a) [fold],activity against cruzain (in words) [1],increase in potency against cruzain ([1]; 10f compared with 10c/10e) [fold]
CC(C)CC(C(=O)OCC(=O)Nc1ccc(N(C)C(=O)OC(C)(C)C)cc1)N1C(=O)C2CC=CCC2C1=O (stereo not drawn) [3k],7,3900 ± 900,> 100,> 64,–,–,–,–,–,–,–,–,–,–
"O=C(Cn1ccnc1[N+](=O)[O-])NCc1ccccc1 [BZ, benznidazole, reference compound]",–,–,> 100,> 64,3000 ± 600,up to 40%,–,–,–,–,–,–,–,–
"COc1ccc(NC(=O)COC(=O)[C@H](CC(C)C)N2CCN(C(=O)OC(C)(C)C)CC2)cc1Cl [10n, tert-butyl (S)-4-(1-(2-((3-chloro-4-methoxyphenyl)amino)-2-oxoethoxy)-4-methyl-1-oxopentan-2-yl)piperazine-1-carboxylate]",8,1600 ± 500,32 ± 5,27 ± 2,–,–,remarkably active,–,–,–,–,–,–,–
"CC(C)C[C@@H](C(=O)OCC(=O)Nc1ccc2ccccc2c1)N1C(=O)C2CC=CCC2C1=O (stereo partly drawn) [3i, 2-(naphthalen-2-ylamino)-2-oxoethyl (2S)-2-(1,3-dioxo-1,3,3a,4,7,7a-hexahydro-2H-isoindol-2-yl)-4-methylpentanoate]",79,32800 ± 4900,> 100,45 ± 8,–,–,–,competitive,2100 ± 1300,–,–,–,–,–
"COc1ccc(NC(=O)COC(=O)[C@H](CC(C)C)N2CCOCC2)cc1Cl [10m, 2-((3-chloro-4-methoxyphenyl)amino)-2-oxoethyl (S)-4-methyl-2-morpholinopentanoate]",14,1800 ± 400,> 100,> 64,–,–,remarkably active,–,–,–,–,–,–,–
"COc1ccc(NC(=O)COC(=O)[C@H](CC(C)C)N2CCCCC2)cc1Cl [10l, 2-((3-chloro-4-methoxyphenyl)amino)-2-oxoethyl (S)-4-methyl-2-(piperidin-1-yl)pentanoate]",10,11600 ± 2400,> 100,> 64,–,–,moderately active,–,–,–,–,–,–,–
"COc1ccc(NC(=O)COC(=O)[C@H](CC(C)C)N2CCNCC2)cc1Cl.Cl [10o, 2-((3-chloro-4-methoxyphenyl)amino)-2-oxoethyl (S)-4-methyl-2-(piperazin-1-yl)pentanoate hydrochloride]",35,1700 ± 500,32 ± 3,52 ± 7,–,–,remarkably active,–,–,–,–,–,–,–
"COc1ccc(NC(=O)COC(=O)[C@H](CC(C)C)N2C(=O)C=CC2=O)cc1Cl [10c, 2-((3-chloro-4-methoxyphenyl)amino)-2-oxoethyl (S)-2-(2,5-dioxo-2,5-dihydro-1H-pyrrol-1-yl)-4-methylpentanoate]",95,900 ± 300,12 ± 1,33 ± 5,–,–,–,–,2300 ± 1000,–,–,–,–,–
"COc1ccc(NC(=O)COC(=O)[C@H](Cc2ccccc2)N2C(=O)C=CC2=O)cc1Cl [10j, 2-((3-chloro-4-methoxyphenyl)amino)-2-oxoethyl (S)-2-(2,5-dioxo-2,5-dihydro-1H-pyrrol-1-yl)-3-phenylpropanoate]",97,1000 ± 300,15.7 ± 0.8,67 ± 8,–,–,–,–,600 ± 100,4,3,–,–,–
"COc1ccc(NC(=O)COC(=O)[C@H](CC(C)C)N2C(=O)CCC2=O)cc1Cl [10d, 2-((3-chloro-4-methoxyphenyl)amino)-2-oxoethyl (S)-2-(2,5-dioxopyrrolidin-1-yl)-4-methylpentanoate]",88,18500 ± 3100,> 100,> 64,–,–,–,–,12000 ± 1000,–,–,6,–,–
"COc1ccc(NCCOC(=O)C(CC(C)C)N2C(=O)C3CC=CCC3C2=O)cc1Cl (stereo not drawn) [compound 7, 2-((3-chloro-4-methoxyphenyl)amino)ethyl 2-(1,3-dioxo-1,3,3a,4,7,7a-hexahydro-2H-isoindol-2-yl)-4-methylpentanoate]",11,1500 ± 400,> 100,63 ± 8,–,–,active,–,–,–,–,–,inactive,–
"COc1ccc(NC(=O)COC(=O)[C@H](CC(C)C)N2C(=O)C(Cl)=C(Cl)C2=O)cc1Cl [10f, 2-((3-chloro-4-methoxyphenyl)amino)-2-oxoethyl (S)-2-(3,4-dichloro-2,5-dioxo-2,5-dihydro-1H-pyrrol-1-yl)-4-methylpentanoate]",100,2000 ± 700,33 ± 9,> 64,–,–,–,–,–,–,–,–,–,6
